{
  "source": "patent US20100210649A1",
  "about": "“PYRIDAZINONES AND FURAN-CONTAINING COMPOUNDS” (Sloan-Kettering Institute for Cancer Research, priority 2006, published 2010)",
  "key": {"[1]": {"test_system": "NHBE (normal human bronchiolar epithelial cells)", "assay": "cells"}, "H2030 cells [2]": {"test_system": "H2030 cells", "assay": "[3H]-thymidine incorporation assay, H2030", "format": "cell-based, human", "conditions": "increasing concentrations, 24 hours", "method": "FIG. 1. SKI-267077 blocks DNA synthesis. H2030 cells were treated with the indicated concentration of SKI-267077 for 24 h and then the incorporation of ^3H-thymidine into DNA was determined\n(§1) [^3H]-thymidine incorporation assay. Cells were seeded in 12-well plates at a density of 100 000 cells/well and treated with inhibitors for 24 hours. H3-thymidine (3 μCi/mL) was then added for 3 hours. Cells were washed twice with PBS, fixed with cold 10% TCA (in PBS) for 30 min then lysed with 0.5% NaOH/0.5% SDS. DNA was scraped from the wells and the amount of H3-thymidine incorporated determined by liquid scintillation counting.\nSKI-267077 inhibits DNA synthesis. […] H2030 cells were treated with increasing concentrations of SKI-267077 for 24 hours and then incorporation of ^3H-thymide into DNA determined (FIG. 1)."}, "H1975": {"test_system": "H1975", "assay": "[3H]-thymidine incorporation assay, H1975", "format": "cell-based, human", "conditions": "H1975, mutant EGFR", "method": "(§2) FIGS. 41A-41B. SKI-267077 inhibits DNA synthesis. SKI-267077 was used to elucidate the mechanism by which this agent inhibits cell growth.\nas §1"}, "H3255": {"test_system": "H3255", "assay": "[3H]-thymidine incorporation assay, H3255", "format": "cell-based, human", "conditions": "H3255, mutant EGFR", "method": "as §2, §1"}, "H2030 cells [3]": {"test_system": "H2030 cells", "assay": "Cell cycle analysis (FACS), H2030", "format": "cell-based, human", "conditions": "24 hours", "method": "FIGS. 2A-2B. SKI-267077 induces cell cycle arrest. H2030 cells were treated with SKI-267077 for 24 h. Cell cycle progression was analyzed by FACS analysis. FIG. 2A: Percent of cells in S-phase. FIG. 2B: percent of cells in G1 phase.\nCell cycle analysis. For cell cycle analysis, cells were plated at a density of 500,000 cells per well in 6-well plates. Attached cells were treated with drugs for 24 h. Cells were then collected, washed with PBS and fixed in 70% ethanol for 1 h. For FACS analysis, fixed cells were washed with cold PBS resuspended in PBS containing 200 μg/mL propidium iodide and 0.1% sodium citrate. Flow cytometry was performed on a Becton-Dickinson FACSCalibur flow cytometer and data the processed using FlowJo software.\nSKI-267077 induces cell cycle arrest at the G1 phase. Cell cycle progression in the presence of SKI-267077 was determined by FACS analysis of H2030 cells that were treated for 24 hours."}, "caspase 3/7": {"test_system": "caspase 3/7", "assay": "Caspase 3/7 enzyme activity assay in cell extracts", "format": "cell-based, human", "conditions": "H2030 cells, 1 μM, 48 h, whole cell extracts", "method": "FIG. 3. Activation of caspase 3/7 by SKI-267077. H2030 cells were treated with 1 μM SKI-267077 for 48 h and then caspase 3/7 activity measured in whole cell extracts.\nCaspase 3/7 enzyme activity assay. Apoptosis was determined by measuring the enzymatic activity of caspase 3/7 in cell homogenates. Cells were plated at a density of 10,000 cells per well in 96-well plates and treated immediately with drugs for 24-72 h. Caspase 3/7 activity will be determined in cell extracts using Z-DEVD-R110 (rhodamine 110 conjugated to the caspase substrate Z-DEVD) as substrate (Promega). The fluorescence of the cleaved substrate was measured using a micro-titer fluorescence plate reader (Ex: 499 nm, Em: 521 nm).\nSKI-267077 stimulates the enzymatic activity of caspase 3/7."}, "cells": {"test_system": "cells", "assay": "Annexin V binding (FACS) apoptosis assay", "format": "cell-based", "conditions": "48 hours, FITC-labeled annexin V", "method": "FIG. 42. SKI-267077 induces apoptosis. Cells were treated for 48 hours with SKI-267077 and then binding of FITC-labeled annexin V to cells determined FACS analysis was used to determine the amount of annexin V-positive cells."}, "AKT isoforms": {"test_system": "AKT isoforms", "assay": "Phosphoprotein array, AKT", "format": "cell-based", "conditions": "cells treated for 24 hours; PI-3kinase signaling pathway", "method": "(§3) FIG. 43A-43C. A phosphoprotein array was used to determine which signaling pathways were affected by treatment of cells with SKI-267077. […] A phosphoprotein array (R and D Systems) was used to measure the level of phosphorylation of cellular proteins. Protein phosphorylation was determined according to the manufacturer's instructions."}, "p70 S6 kinase": {"test_system": "p70 S6 kinase", "assay": "Phosphoprotein array, p70 S6 kinase", "format": "cell-based", "conditions": "cells treated for 24 hours; PI-3kinase signaling pathway", "method": "as §3"}, "[4]": {"test_system": "MAPK isoforms ERK1 and ERK2", "assay": "Phosphoprotein array, ERK1 and ERK2", "format": "cell-based", "conditions": "cells treated for 24 hours; MAPK signaling pathway", "method": "as §3"}, "[5]": {"conditions": "Homo sapiens, NHBE, read-out: IC50(uM) NHBE"}},
  "data": [
    {"smiles": "Cc1cccc(NC(=O)c2ccc([N+](=O)[O-])o2)c1", "note": "[compound 71762]", "values": [
      {"measurement": "IC50", "setting": "[1]; Homo sapiens, NHBE, read-out: IC50(uM) NHBE, phenylfuran-2-carboxamide SAR summary", "value": 15.8, "unit": "µM"},
      {"measurement": "IC50", "setting": "[1]; read-out: IC50(uM) NHBE, phenylfuran-2-carboxamide SAR summary", "value": 14.8, "unit": "µM"}
    ]},
    {"smiles": "Cc1ccc(NC(=O)c2ccc([N+](=O)[O-])o2)cc1", "note": "[compound 98697]", "values": [
      {"measurement": "IC50", "setting": "[1]; [5]", "value": 29.4, "unit": "µM"}
    ]},
    {"smiles": "O=C(Nc1ccc(Cl)cc1)c1ccc([N+](=O)[O-])o1", "note": "[compound 98698, 5-nitro-furan-2-carboxylic acid (4-chloro-phenyl)-amide]", "values": [
      {"measurement": "IC50", "setting": "[1]; [5]", "value": 21.4, "unit": "µM"}
    ]},
    {"smiles": "O=c1c(Cl)c(Cl)cnn1-c1ccc(Cl)cc1Cl", "note": "[compound 267077]", "values": [
      {"measurement": "incorporation of 3H-thymidine into DNA (DNA synthesis)", "setting": "H2030 cells [2]", "value": "dose-dependent decrease in DNA synthesis"},
      {"measurement": "DNA synthesis", "setting": "H1975", "value": "dose-dependent reduction in DNA synthesis"},
      {"measurement": "DNA synthesis", "setting": "H3255", "value": "dose-dependent reduction in DNA synthesis"},
      {"measurement": "percent of cells in the G1 phase", "setting": "H2030 cells [3]", "value": "increase in the percent of cells in the induce G1 phase"},
      {"measurement": "percent of cells in the S phase", "setting": "H2030 cells [3]", "value": "reduction of the percent of cells in the S phase"},
      {"measurement": "activity of caspase 3/7", "setting": "caspase 3/7", "value": "increase in the activity of caspase 3/7"},
      {"measurement": "apoptosis, binding of annexin-V to the cell surface", "setting": "cells", "value": "induction of apoptosis"},
      {"measurement": "phosphorylation of AKT isoforms", "setting": "AKT isoforms", "value": "blocked phosphorylation of all three AKT isoforms"},
      {"measurement": "phosphorylation of p70 S6 kinase", "setting": "p70 S6 kinase", "value": "blocked phosphorylation"},
      {"measurement": "phosphorylation of ERK1 and ERK2", "setting": "[4]", "value": "reduced phosphorylation of the MAPK isoforms ERK1 and ERK2"}
    ]}
  ]
}
